Values quoted from earlier work in US11638718B2, “Treatment of alphavirus-induced inflammation” (priority 2016, dated 2023).

Tested on: alphavirus
Settings: earlier studies by the group (refs 30, 55-57); cited from earlier work

## CN(Cc1cnc2nc(N)nc(N)c2n1)c1ccc(C(=O)N[C@@H](CCC(=O)O)C(=O)O)cc1 [methotrexate]
  effect on alphavirus disease: increased the onset of RRV-induced musculoskeletal disease
